Results: patent publication US20250115654A1, “PHARMACEUTICAL COMPOSITION OF GLP-1 RECEPTOR AND GIP RECEPTOR DUAL AGONIST, AND USE THEREOF” (FUJIAN SHENGDI PHARMACEUTICAL CO., LTD., priority 2021, published 2025)
Numbered stars: 1 amine (or outer) side, 2 acyl side, 3 side chain; on linkers, the order of the positions; unused ones are H or OH. Square brackets hold non-standard residues; d marks the D form. Side chains are listed from the residue outwards. Peptide text beside a SMILES is read from it. * marks the point of attachment. C20 diacid = O=C(O)CCCCCCCCCCCCCCCCCCC(=O)*; γGlu = O=C(O)[C@H](CCC(=O)[*:2])N[*:1]; AEEA = NCCOCCOCC(=O)O; Aib = CC(C)(N)C(=O)O

What was measured:
[1] = system: normal mice; experiment: Blood glucose in normal mice after a single subcutaneous administration and intraperitoneal glucose; type: in vivo, C57BL/6 mice; details: 10 nmol/kg sc; for Blood glucose (mmol/L, mean ± SD): glucose ip 18 h later
Experimental: 18 h later, a glucose solution at a concentration of 0.2 g/mL was intraperitoneally injected. Blood glucose values were measured by collecting blood from the tail of mice at time points of 0 min, 15 min, 30 min, 60 min, and 120 min according to the experimental design. The specific procedures were as follows: the mouse was physically immobilized with the tail exposed, a little part was cut off at the tail end, then the tail was squeezed to bleed, and blood glucose was determined using a Roche active glucometer after the 1st drop of blood was discarded. The area under the blood glucose curve (AUC) was calculated from the results of all time points.

[2] = biological target: T1, human GIPR (Homo sapiens, UniProt P48546); experiment: Agonist activity against GIPR, cAMP HTRF in CHO-K1 cells transiently transfected with hGIP receptor; type: cell-based
T1 construct: expressed in transfected cells; host or cells: wild-type CHO-K1, transient transfection with hGIP receptor plasmid (Fugene HD)
T1 sequence (P48546 22-466): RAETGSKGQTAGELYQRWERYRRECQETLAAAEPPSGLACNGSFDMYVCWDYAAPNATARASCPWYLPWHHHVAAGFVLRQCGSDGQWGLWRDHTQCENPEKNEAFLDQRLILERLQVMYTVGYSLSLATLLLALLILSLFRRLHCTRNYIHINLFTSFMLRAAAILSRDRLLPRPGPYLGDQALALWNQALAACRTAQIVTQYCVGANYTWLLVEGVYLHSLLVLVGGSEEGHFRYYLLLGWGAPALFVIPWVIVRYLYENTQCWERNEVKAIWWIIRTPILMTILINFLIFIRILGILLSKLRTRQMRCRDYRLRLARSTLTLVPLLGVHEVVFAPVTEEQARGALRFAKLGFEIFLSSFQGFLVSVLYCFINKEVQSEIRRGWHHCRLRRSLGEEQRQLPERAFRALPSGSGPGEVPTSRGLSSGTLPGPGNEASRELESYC
Experimental: Wild-type CHO-K1 cells were collected, and the cell suspension was adjusted to an appropriate density, seeded in a 6-well plate at 2 mL/well, and placed in an incubator at 37° C. with 5% CO2 for adherence culture overnight.

[3] = Stability of compounds in human plasma (LC-MS); type: in vitro ADME
Experimental: 5 μL of each of samples at concentrations of 20 ng/mL, 50 ng/mL, 100 ng/mL, 200 ng/mL, 500 ng/mL, 1000 ng/mL, 2000 ng/mL, 5000 ng/mL, and 10000 ng/mL was added to 45 L of human plasma. The content of the compounds in the samples was determined by the LC-MS method and a standard curve was formed. 5 μL of a 1 mg/mL polypeptide solution was added to 45 μL of human plasma. […] With the content at 0 min as the standard (100%), the relative content of the retained compounds in the samples at other time points was calculated.

[4] = Pharmacokinetics in Balb/c mice after a single subcutaneous injection; type: in vivo; details: male, mouse, sc, mice plasma, 30 nmol/kg
Experimental: (§1) Male Balb/c mice weighing 18-30 g and aged 7-9 weeks were purchased from Shanghai Jiesijie Laboratory Animal Co., Ltd. After compound 7 #was prepared in a buffer containing 20 mM citric acid (pH=7.0), compound 7 #was subcutaneously injected into mice at a dose of 30 nmol/kg body weight via left side of abdomen, and 0.2 mL of blood was separately collected at time points of 0 h, 0.083 h, 0.25 h, 0.5 h, 1 h, 2 h, 4 h, 6 h, 8 h, 24 h, and 32 h. The collected blood of mice was centrifuged at 6000 rpm for 6 min at 4° C. to separate the plasma. The content of compound 7 #in plasma of mice was assayed by the experimental procedures of Example 5.2.

[5] = system: diet-induced-obesity mice; experiment: Body weight of diet-induced-obesity mice, subcutaneous administration once every 3 days; type: in vivo, C57BL/6 mice; details: for Body weight change (%, mean ± SD): 10 nmol/kg
[6] = Pharmacokinetics in Balb/c mice after a single intravenous injection; type: in vivo; details: male, mouse, mice plasma, 30 nmol/kg
Experimental: as §1, with “intravenous” for “subcutaneously”, “tail vein,” for “left side of abdomen,”, “3.3.” for “5.2.”

[7] = biological target: T2, human glucose-dependent insulinotropic polypeptide receptor (GIPR) (human) (UniProt P48546)
T2 sequence: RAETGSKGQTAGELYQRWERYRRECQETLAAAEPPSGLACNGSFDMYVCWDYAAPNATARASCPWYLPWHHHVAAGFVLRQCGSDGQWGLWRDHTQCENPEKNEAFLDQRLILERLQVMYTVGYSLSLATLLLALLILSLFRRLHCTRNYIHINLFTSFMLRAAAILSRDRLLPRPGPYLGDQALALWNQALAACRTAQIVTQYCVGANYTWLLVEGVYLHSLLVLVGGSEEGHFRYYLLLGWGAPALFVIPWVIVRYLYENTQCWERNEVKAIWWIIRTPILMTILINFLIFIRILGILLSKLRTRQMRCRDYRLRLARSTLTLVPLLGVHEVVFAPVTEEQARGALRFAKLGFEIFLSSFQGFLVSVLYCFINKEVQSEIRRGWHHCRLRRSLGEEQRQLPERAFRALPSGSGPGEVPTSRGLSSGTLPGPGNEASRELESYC

[8] = biological target: T3, human glucose-dependent insulinotropic polypeptide receptor (GIPR) (human, UniProt P48546); experiment: cell-based or functional assay
T3 sequence: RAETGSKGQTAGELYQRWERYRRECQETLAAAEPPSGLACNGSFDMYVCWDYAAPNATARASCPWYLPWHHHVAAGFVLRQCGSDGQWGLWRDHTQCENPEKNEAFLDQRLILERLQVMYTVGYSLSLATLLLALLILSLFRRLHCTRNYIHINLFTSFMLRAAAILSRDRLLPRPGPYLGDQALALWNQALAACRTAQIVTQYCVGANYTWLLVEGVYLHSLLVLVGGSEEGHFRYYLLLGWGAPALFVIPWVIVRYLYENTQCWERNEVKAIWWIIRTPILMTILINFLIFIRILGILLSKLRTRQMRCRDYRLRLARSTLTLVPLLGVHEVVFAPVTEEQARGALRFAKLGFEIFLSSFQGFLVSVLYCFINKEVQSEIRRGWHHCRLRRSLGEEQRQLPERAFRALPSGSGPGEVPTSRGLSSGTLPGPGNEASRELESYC

[9] = biological target: human glucagon-like peptide-1 receptor (GLP-1R) (human, UniProt P43220); experiment: cell-based or functional assay

With `CC[C@H](C)[C@H](NC(=O)[C@H](CCCCN)NC(=O)[C@H](CC(=O)O)NC(=O)[C@H](CCCCNC(=O)COCCOCCNC(=O)COCCOCCNC(=O)CC[C@H](NC(=O)CCCCCCCCCCCCCCCCCCC(=O)O)C(=O)O)NC(=O)[C@H](Cc1ccc(O)cc1)NC(=O)[C@@H](NC(=O)[C@H](CO)NC(=O)[C@H](Cc1ccc(O)cc1)NC(=O)[C@H](CC(=O)O)NC(=O)[C@H](CO)NC(=O)[C@@H](NC(=O)[C@H](Cc1ccccc1)NC(=O)[C@@H](NC(=O)CNC(=O)[C@H](CCC(=O)O)NC(=O)C(C)(C)NC(=O)[C@@H](N)Cc1ccc(O)cc1)[C@@H](C)O)[C@@H](C)O)[C@@H](C)CC)C(=O)N[C@@H](C)C(=O)N[C@@H](C)C(=O)N[C@@H](CCC(N)=O)C(=O)N[C@@H](CCC(=O)O)C(=O)N[C@@H](Cc1ccccc1)C(=O)N[C@H](C(=O)N[C@@H](CC(N)=O)C(=O)N[C@@H](Cc1c[nH]c2ccccc12)C(=O)N[C@@H](CC(C)C)C(=O)N[C@@H](CC(C)C)C(=O)N[C@@H](C)C(=O)NCC(=O)NCC(=O)N1CCC[C@H]1C(=O)N[C@@H](CO)C(=O)N[C@@H](CO)C(=O)NCC(=O)N[C@@H](C)C(=O)N1CCC[C@H]1C(=O)N1CCC[C@H]1C(=O)N1CCC[C@H]1C(=O)N[C@@H](CO)C(N)=O)C(C)C` [Compound 7#] (H-Y[Aib]EGTFTSDYSIYK([AEEA-AEEA-γGlu-C20 diacid])DKIAAQEFVNWLLAGGPSSGAPPPS-NH2) the “reduction of area under the blood glucose curve compared with placebo” value [1] was “more than 60%”, the “AUC (area under the blood glucose curve)” value ([1]; 0-120 min) was 10.7 ± 1.8 mmol·h/L and the “Blood glucose (mmol/L, mean ± SD)” value ([1]; 0 min) was 4.4 ± 0.8 mmol/L. For the same molecule, the “Blood glucose (mmol/L, mean ± SD)” value ([1]; 15 min) was 6.7 ± 0.8 mmol/L, the “Blood glucose (mmol/L, mean ± SD)” value ([1]; 30 min) was 6.2 ± 1.3 mmol/L and the “Blood glucose (mmol/L, mean ± SD)” value ([1]; 60 min) was 5.7 ± 1.2 mmol/L. The “Blood glucose (mmol/L, mean ± SD)” value ([1]; 120 min) was 3.8 ± 1.1 mmol/L, the EC50 [2] was 0.11 nM and the “Relative content of compounds retained in plasma (%)” value ([3]; 0 min (standard 100%)) was 100.00%. The remaining at 0.5 h, 0.1 mg/mL ([3]; human, 30 min, read-out: Relative content of compounds retained in plasma (%)) was 101%, the remaining at 1 h, 0.1 mg/mL ([3]; human, 60 min, read-out: Relative content of compounds retained in plasma (%)) was 102% and the remaining at 2 h, 0.1 mg/mL ([3]; human, 120 min, read-out: Relative content of compounds retained in plasma (%)) was 103%. For the same molecule, the remaining at 4 h, 0.1 mg/mL ([3]; human, 240 min, read-out: Relative content of compounds retained in plasma (%)) was > 90%, the AUC(0-inf) [4] was 14500 ng·h/mL and the half-life [4] was 10.1 h. The “Body weight change (%, mean ± SD)” value ([5]; Day 1) was 0%, the “Body weight change (%, mean ± SD)” value ([5]; Day 4) was −11.0 ± 1.0% and the “Body weight change (%, mean ± SD)” value ([5]; Day 7) was −17.6 ± 2.6%. For the same molecule, the “Body weight change (%, mean ± SD)” value ([5]; Day 10) was −22.6 ± 5.9%, the “Body weight change (%, mean ± SD)” value ([5]; Day 13) was −22.3 ± 6.3% and the “Body weight change (%, mean ± SD)” value ([5]; Day 16) was −22.7 ± 6.9%. The “Body weight change (%, mean ± SD)” value ([5]; Day 19) was −25.9 ± 6.2%, the “Body weight change (%, mean ± SD)” value ([5]; Day 22) was −23.9 ± 5.6% and the “Body weight change (%, mean ± SD)” value ([5]; Day 25) was −23.9 ± 5.6%. The “Body weight change (%, mean ± SD)” value ([5]; Day 28) was −25.5 ± 5.3%, the “body weight-reducing effect on high-fat food-induced-obesity mice” value ([5]; doses of 3, 10 and 100 nmol/kg) was “significant body weight-reducing effect” and the AUC(0-inf) [6] was 16100 ng·h/mL. For the same molecule, the half-life [6] was 13 h.

With LY3298176 (peptide) the Activity against human GIPR (EC50 nM); cAMP, HTRF [7] was 0.031 nM.

For H-Y[Aib]EGTFTSDYSIYK([AEEA-AEEA-γGlu-C20‑OH])DKIAAQEFVNWLLAGGPSSGAPPPS-NH2 [compound 7# H-YAibEGTFTSDYSIYK(OEG-OEG-yGlu-C20-OH)DKIAAQEFVNWLLAGGPSSGAPPPS-NH2], the “Activity against human GIPR (EC50 nM); cAMP, HTRF” value [8] was 0.11 nM and the “Activity against human GLP-1R (EC50 nM); cAMP, HTRF” value [9] was 0.021 nM.
